The assay concerns the target T1, PlzA (BB0733) (Borreliella burgdorferi, UniProt O51675).
T1 construct: gene BB_0733; PilZN3-PilZ domains
Nature of the assay: SAXS with and without ligand (Kratky plots). Type of assay: binding. Conditions: 33-135 µM PlzA, 270 µM c-di-GMP; 500 mM NaCl, 20 mM Na2HPO4, pH 7.4; ligand-induced conformational change.

T1 sequence (O51675 entry or part of it): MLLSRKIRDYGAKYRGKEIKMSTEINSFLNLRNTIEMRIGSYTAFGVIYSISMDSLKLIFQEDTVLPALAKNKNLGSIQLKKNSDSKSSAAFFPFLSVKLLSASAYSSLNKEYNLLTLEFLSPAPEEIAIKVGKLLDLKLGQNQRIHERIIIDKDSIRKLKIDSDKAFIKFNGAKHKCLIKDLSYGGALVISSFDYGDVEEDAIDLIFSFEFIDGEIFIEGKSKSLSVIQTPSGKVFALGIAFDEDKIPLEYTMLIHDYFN

With `Nc1nc2c(ncn2[C@@H]2O[C@@H]3COP(=O)(O)O[C@H]4[C@@H](O)[C@H](n5cnc6c(=O)[nH]c(N)nc65)O[C@@H]4COP(=O)(O)O[C@H]3[C@H]2O)c(=O)[nH]1` [c-di-GMP, bis-(3′-5′)-cyclic dimeric guanosine monophosphate], the “SAXS with and without ligand (Kratky plots)” value was “confirming a major structural rearrangement upon binding of c-di-GMP”.

The values are drawn from paper PMC8323883, “PlzA is a bifunctional c-di-GMP biosensor that promotes tick and mammalian host-adaptation of Borrelia burgdorferi” (PLoS Pathogens, 2021).
